Reference: PubChem BioAssay AID1963829 (Molecular Pharmacology Branch, DTP, NCI, 2024)

System: 935938-334-R-J1-PDC complex spheroid viability
Experiment: Anticancer human tumor 935938-334-R-J1-PDC patient-derived small intestine adenocarcinoma cell line growth inhibition [POLQ]
Conditions: for IC50: curve of first compound; for viability, T/C: stronger effect = lower value
In short: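 Three-cell-type spheroids modelling solid tumor plus stroma served as the readout system; POL inhibitors were tested individually and in combination, concentration ranges set by clinical Cmax where known.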

[1] = second compound 0.0316 µM, first compound 0.0316 µM
[2] = second compound 0.0316 µM, first compound 0.1 µM
[3] = second compound 0.0316 µM, first compound 0.316 µM
[4] = second compound 0.0316 µM, first compound 1 µM
[5] = second compound 0.0316 µM, first compound 3.16 µM
[6] = second compound 0.0316 µM, first compound 10 µM
[7] = second compound 0.1 µM, first compound 0.0316 µM
[8] = second compound 0.1 µM, first compound 0.1 µM
[9] = second compound 0.1 µM, first compound 0.316 µM
[10] = second compound 0.1 µM, first compound 1 µM
[11] = second compound 0.1 µM, first compound 3.16 µM
[12] = second compound 0.1 µM, first compound 10 µM
[13] = second compound 0.316 µM, first compound 0.0316 µM
[14] = second compound 0.316 µM, first compound 0.1 µM
[15] = second compound 0.316 µM, first compound 0.316 µM
[16] = second compound 0.316 µM, first compound 1 µM
[17] = second compound 0.316 µM, first compound 3.16 µM
[18] = second compound 0.316 µM, first compound 10 µM
[19] = second compound 1 µM, first compound 0.0316 µM
[20] = second compound 1 µM, first compound 0.1 µM
[21] = second compound 1 µM, first compound 0.316 µM
[22] = second compound 1 µM, first compound 1 µM
[23] = second compound 1 µM, first compound 3.16 µM
[24] = second compound 1 µM, first compound 10 µM
[25] = second compound 3.16 µM, first compound 0.0316 µM
[26] = second compound 3.16 µM, first compound 0.1 µM
[27] = second compound 3.16 µM, first compound 0.316 µM
[28] = second compound 3.16 µM, first compound 1 µM
[29] = second compound 3.16 µM, first compound 3.16 µM
[30] = second compound 3.16 µM, first compound 10 µM
[31] = second compound 10 µM, first compound 0.0316 µM
[32] = second compound 10 µM, first compound 0.1 µM
[33] = second compound 10 µM, first compound 0.316 µM
[34] = second compound 10 µM, first compound 1 µM
[35] = second compound 10 µM, first compound 3.16 µM
[36] = second compound 10 µM, first compound 10 µM
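Note: spheroids exposed to drugs for seven days before viability read.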
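Throughout, for viability, T/C: 100% = DMSO vehicle control wells.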

Q: With CCCS(=O)(=O)Nc1ccc(F)c(C(=O)c2c[nH]c3ncc(-c4ccc(Cl)cc4)cc23)c1F + Nc1ccc(C#CCN(C(=O)Cc2ncc(C(F)(F)F)cc2C(F)(F)F)c2ccc(F)cc2)nn1 as the compound, how does the IC50 (second compound 0.0316 µM) read?
A: The IC50 was 9.23 µM.

Q: And the IC50 (second compound 0.1 µM)?
A: Its IC50 is 9.61 µM.

Q: And the IC50 (second compound 0.316 µM)?
A: Its IC50 is over 10 µM.

Q: What about the IC50 (second compound 1 µM) of the same compound?
A: Its IC50 is over 10 µM.

Q: And the IC50 (second compound 3.16 µM)?
A: The IC50 was 9.37 µM.

Q: What about the IC50 (second compound 10 µM) of the same compound?
A: Its IC50 is 9.98 µM.

Q: And the viability, T/C [1]?
A: Its viability, T/C is 114%.

Q: What about the viability, T/C [2] of the same compound?
A: The viability, T/C was 112%.

Q: What about the viability, T/C [3] of the same compound?
A: The viability, T/C was 117%.

Q: What about the viability, T/C [4] of the same compound?
A: Its viability, T/C is 135%.

Q: What about the viability, T/C [5] of the same compound?
A: The viability, T/C was 113%.

Q: And the viability, T/C [6]?
A: Its viability, T/C is 45%.

Q: And the viability, T/C [7]?
A: The viability, T/C was 126%.

Q: And the viability, T/C [8]?
A: The viability, T/C was 138%.

Q: And the viability, T/C [9]?
A: Its viability, T/C is 109%.

Q: What about the viability, T/C [10] of the same compound?
A: Its viability, T/C is 140%.

Q: What about the viability, T/C [11] of the same compound?
A: Its viability, T/C is 131%.

Q: What about the viability, T/C [12] of the same compound?
A: The viability, T/C was 47.3%.

Q: And the viability, T/C [13]?
A: The viability, T/C was 118%.

Q: What about the viability, T/C [14] of the same compound?
A: The viability, T/C was 121%.

Q: What about the viability, T/C [15] of the same compound?
A: Its viability, T/C is 90.9%.

Q: And the viability, T/C [16]?
A: Its viability, T/C is 165%.

Q: What about the viability, T/C [17] of the same compound?
A: The viability, T/C was 120%.

Q: And the viability, T/C [18]?
A: Its viability, T/C is 50.3%.

Q: And the viability, T/C [19]?
A: Its viability, T/C is 103%.

Q: And the viability, T/C [20]?
A: The viability, T/C was 97.4%.

Q: What about the viability, T/C [21] of the same compound?
A: Its viability, T/C is 95.1%.

Q: And the viability, T/C [22]?
A: Its viability, T/C is 112%.

Q: And the viability, T/C [23]?
A: The viability, T/C was 129%.

Q: What about the viability, T/C [24] of the same compound?
A: The viability, T/C was 63.2%.

Q: And the viability, T/C [25]?
A: The viability, T/C was 110%.

Q: What about the viability, T/C [26] of the same compound?
A: The viability, T/C was 121%.

Q: What about the viability, T/C [27] of the same compound?
A: The viability, T/C was 140%.

Q: And the viability, T/C [28]?
A: The viability, T/C was 158%.

Q: What about the viability, T/C [29] of the same compound?
A: The viability, T/C was 121%.

Q: And the viability, T/C [30]?
A: Its viability, T/C is 45.6%.

Q: What about the viability, T/C [31] of the same compound?
A: Its viability, T/C is 104%.

Q: And the viability, T/C [32]?
A: The viability, T/C was 125%.

Q: What about the viability, T/C [33] of the same compound?
A: Its viability, T/C is 145%.

Q: What about the viability, T/C [34] of the same compound?
A: The viability, T/C was 174%.

Q: And the viability, T/C [35]?
A: Its viability, T/C is 151%.

Q: And the viability, T/C [36]?
A: Its viability, T/C is 50%.

Q: What does the source list for COc1ccc([C@@H](O)c2cc(-c3ncnc4cc(N5CCOCC5)ccc34)c(F)cc2Cl)nn1 + Nc1ccc(C#CCN(C(=O)Cc2ncc(C(F)(F)F)cc2C(F)(F)F)c2ccc(F)cc2)nn1?
A: IC50 (second compound 0.0316 µM): 6.57 µM; IC50 (second compound 0.1 µM): 5.84 µM; IC50 (second compound 0.316 µM): 5.43 µM; IC50 (second compound 1 µM): 5.24 µM; IC50 (second compound 3.16 µM): 3.68 µM; IC50 (second compound 10 µM): 2.04 µM; viability, T/C [1]: 87.1%; viability, T/C [2]: 81.3%; viability, T/C [3]: 98.4%; viability, T/C [4]: 102%; viability, T/C [5]: 59.2%; viability, T/C [6]: 44.7%; viability, T/C [7]: 120%; viability, T/C [8]: 98.5%; viability, T/C [9]: 105%; viability, T/C [10]: 109%; viability, T/C [11]: 73.7%; viability, T/C [12]: 29.4%; viability, T/C [13]: 106%; viability, T/C [14]: 106%; viability, T/C [15]: 110%; viability, T/C [16]: 84.9%; viability, T/C [17]: 74.8%; viability, T/C [18]: 25%; viability, T/C [19]: 118%; viability, T/C [20]: 96.6%; viability, T/C [21]: 106%; viability, T/C [22]: 82.3%; viability, T/C [23]: 70.1%; viability, T/C [24]: 28.5%; viability, T/C [25]: 109%; viability, T/C [26]: 98.9%; viability, T/C [27]: 96.5%; viability, T/C [28]: 80.5%; viability, T/C [29]: 52.1%; viability, T/C [30]: 29.6%; viability, T/C [31]: 81.1%; viability, T/C [32]: 83.6%; viability, T/C [33]: 118%; viability, T/C [34]: 60.5%; viability, T/C [35]: 54%; viability, T/C [36]: 33.1%

Q: Which results are given for Cn1ncnc1[C@H]1c2n[nH]c(=O)c3cc(F)cc(c23)N[C@@H]1c1ccc(F)cc1 + Nc1ccc(C#CCN(C(=O)Cc2ncc(C(F)(F)F)cc2C(F)(F)F)c2ccc(F)cc2)nn1?
A: IC50 (second compound 0.0316 µM): > 0.1 µM; IC50 (second compound 0.1 µM): > 0.1 µM; IC50 (second compound 0.316 µM): > 0.1 µM; IC50 (second compound 1 µM): > 0.1 µM; IC50 (second compound 3.16 µM): > 0.1 µM; IC50 (second compound 10 µM): > 0.1 µM; viability, T/C (second compound 0.0316 µM, first compound 0.000316 µM): 98%; viability, T/C (second compound 0.0316 µM, first compound 0.001 µM): 106%; viability, T/C (second compound 0.0316 µM, first compound 0.00316 µM): 94.5%; viability, T/C (second compound 0.0316 µM, first compound 0.01 µM): 73.1%; viability, T/C [1]: 83.9%; viability, T/C [2]: 101%; viability, T/C (second compound 0.1 µM, first compound 0.000316 µM): 68%; viability, T/C (second compound 0.1 µM, first compound 0.001 µM): 103%; viability, T/C (second compound 0.1 µM, first compound 0.00316 µM): 88.4%; viability, T/C (second compound 0.1 µM, first compound 0.01 µM): 97.9%; viability, T/C [7]: 86.5%; viability, T/C [8]: 92.9%; viability, T/C (second compound 0.316 µM, first compound 0.000316 µM): 102%; viability, T/C (second compound 0.316 µM, first compound 0.001 µM): 104%; viability, T/C (second compound 0.316 µM, first compound 0.00316 µM): 107%; viability, T/C (second compound 0.316 µM, first compound 0.01 µM): 105%; viability, T/C [13]: 106%; viability, T/C [14]: 76.9%; viability, T/C (second compound 1 µM, first compound 0.000316 µM): 95.5%; viability, T/C (second compound 1 µM, first compound 0.001 µM): 85.5%; viability, T/C (second compound 1 µM, first compound 0.00316 µM): 91.9%; viability, T/C (second compound 1 µM, first compound 0.01 µM): 79%; viability, T/C [19]: 96.6%; viability, T/C [20]: 85.1%; viability, T/C (second compound 3.16 µM, first compound 0.000316 µM): 69%; viability, T/C (second compound 3.16 µM, first compound 0.001 µM): 81.4%; viability, T/C (second compound 3.16 µM, first compound 0.00316 µM): 88.1%; viability, T/C (second compound 3.16 µM, first compound 0.01 µM): 86.9%; viability, T/C [25]: 85.1%; viability, T/C [26]: 111%; viability, T/C (second compound 10 µM, first compound 0.000316 µM): 107%; viability, T/C (second compound 10 µM, first compound 0.001 µM): 106%; viability, T/C (second compound 10 µM, first compound 0.00316 µM): 106%; viability, T/C (second compound 10 µM, first compound 0.01 µM): 94.3%; viability, T/C [31]: 99.5%; viability, T/C [32]: 92%
